For test [1], the system named is human lung cancer strain NCI-H441. Nature of the test: cells. As to conditions: NCI-H441, 96 h, read-out: NCI-H441 IC50 (nM), NCI-H441 cell proliferation, 4 days, CellTiter-Glo. In general terms: ATP-based viability assays read luminescence as a measure of living cells.
Test [2] concerns the target GDP-bound HRAS wild-type protein (Homo sapiens, UniProt P01112). Nature of the test: Binding to HRAS by surface plasmon resonance (SPR), Single Cycle Kinetics. As to conditions: SPR; for HRAS/KRAS (ratio of KD value for HRAS to KD value for KRAS): GDP-bound HRAS wild-type protein vs GDP-bound KRAS wild-type protein. In general terms: SPR reads the build-up and loss of mass on a sensor chip optically.

Test [3] concerns the target GDP-bound KRAS wild-type protein (Homo sapiens, UniProt P01116). Nature of the test: Binding to KRAS by surface plasmon resonance (SPR), Single Cycle Kinetics. As to conditions: SPR, Single Cycle Kinetics.
The test system of test [4] is human lung cancer strain NCI-H441. Conditions: read-out: NCI-H441 cell proliferation inhibitory activity, 50% proliferation inhibitory concentration (IC50 value); NCI-H441, four days, CellTiter-Glo.
Test [5] has as its target GDP-bound NRAS wild-type protein (Homo sapiens, UniProt P01111). Nature of the test: Binding to NRAS by surface plasmon resonance (SPR), Single Cycle Kinetics. As to conditions: SPR; for NRAS/KRAS (ratio of KD value for NRAS to KD value for KRAS): GDP-bound NRAS wild-type protein vs GDP-bound KRAS wild-type protein.
Setting [6] is: 1:1 binding model, read-out: KD value with respect to GDP-bound KRAS wild-type protein.
Where [7] appears, read: GDP-bound KRAS wild-type protein, read-out: KRAS KD.

Usually Kd stands for the equilibrium constant for the complex coming apart.

The structures appear in SMILES notation. Where two headings read alike, the source gives them in different places.
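For IC50 in this document: cell proliferation inhibition after four days measured by CellTiter-Glo.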

Sequence of GDP-bound HRAS wild-type protein (P01112 whole entry): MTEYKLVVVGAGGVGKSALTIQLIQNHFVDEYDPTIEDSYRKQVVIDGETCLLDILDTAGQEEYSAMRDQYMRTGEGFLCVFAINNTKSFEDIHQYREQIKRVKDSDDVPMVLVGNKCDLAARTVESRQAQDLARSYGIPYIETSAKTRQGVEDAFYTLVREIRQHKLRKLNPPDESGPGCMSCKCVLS
Sequence of GDP-bound KRAS wild-type protein (P01116 whole entry): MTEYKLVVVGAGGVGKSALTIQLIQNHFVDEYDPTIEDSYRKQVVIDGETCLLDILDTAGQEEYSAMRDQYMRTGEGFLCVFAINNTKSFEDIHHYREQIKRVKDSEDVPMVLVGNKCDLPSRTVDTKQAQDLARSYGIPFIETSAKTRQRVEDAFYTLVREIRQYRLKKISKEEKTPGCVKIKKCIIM
Sequence of GDP-bound NRAS wild-type protein (P01111 whole entry): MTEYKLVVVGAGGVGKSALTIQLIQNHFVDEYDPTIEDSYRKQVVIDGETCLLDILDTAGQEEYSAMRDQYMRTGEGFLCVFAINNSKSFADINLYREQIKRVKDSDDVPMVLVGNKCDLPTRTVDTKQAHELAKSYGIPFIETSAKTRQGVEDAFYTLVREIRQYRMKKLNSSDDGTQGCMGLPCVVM

With `CCC[C@H]1C(=O)N[C@@H]([C@@H](C)CC)C(=O)N(C)CC(=O)N(C)[C@H]2C/C=C\CCN(C2=O)[C@@H](Cc2ccc(C)cc2)C(=O)N(C)CC(=O)N[C@@H](CCc2ccc(C(F)(F)F)c(Cl)c2)C(=O)N2C[C@H](C)C[C@H]2C(=O)NC2(CCC2)C(=O)N(C)[C@@H](C2CCCC2)C(=O)N(C)[C@H](C(=O)N(C)CC)CC(=O)N1C` [PP1850], in test [1], the IC50 was 49.1 nM.

For `CC[C@H](C)[C@@H]1NC(=O)[C@H](CC)N(C)C(=O)C[C@@H](C(=O)N(C)CC)N(C)C(=O)[C@H](C2CCCC2)N(C)C(=O)C2(CCC2)NC(=O)[C@@H]2C[C@H](C)CN2C(=O)[C@H](CCc2ccc(C(F)(F)F)c(OC)c2)NC(=O)CN(C)C(=O)[C@H](Cc2ccc(C)cc2)N2CC/C=C\C[C@@H](C2=O)N(C)C(=O)CN(C)C1=O` [PP1853], the IC50 in test [1] came out at 30.4 nM.

As to `CC[C@H](C)[C@@H]1NC(=O)[C@H](CC(F)F)N(C)C(=O)C[C@@H](C(=O)N(C)C)N(C)C(=O)[C@H](C2CCCC2)N(C)C(=O)C2(CC(C)(C)C2)NC(=O)[C@@H]2C[C@@H](C)CN2C(=O)[C@H](CCc2ccc(C(F)(F)F)c(OC)c2)NC(=O)CN(C)C(=O)[C@H](Cc2ccc(C)cc2)N2CC/C=C\C[C@@H](C2=O)N(C)C(=O)CN(C)C1=O` [PP1877], in test [1], the IC50 amounted to 18.4 nM.

As to `CCC[C@H]1C(=O)N[C@@H]([C@@H](C)CC)C(=O)N2CCC[C@H]2C(=O)N(C)[C@H]2C/C=C\CCN(C2=O)[C@@H](Cc2ccc(C)cc2)C(=O)N(C)CC(=O)N[C@@H](CCc2cc(F)c(C(F)(F)F)c(F)c2)C(=O)N2C[C@H](OCC)C[C@H]2C(=O)N(C)C2(CCC2)C(=O)N(C)[C@@H](C2CCCC2)C(=O)N(C)[C@H](C(=O)N2CCCC2)CC(=O)N1C` [PP3117, (1S,4S,10S,13S,17S,20S,26S,28R,32S,38S,42Z)-20-cyclopentyl-32-[2-[3,5-difluoro-4-(trifluoromethyl)phenyl]ethyl]-28-ethoxy-2,14,18,21,24,36-hexamethyl-10-[(1S)-1-methylpropyl]-13-propyl-38-(p-tolylmethyl)-17-(pyrrolidine-1-carbonyl)spiro[2,8,11,14,18,21,24,30,33,36,39-undecazatetracyclo[37.5.1.0^4,8.0^26,30]pentatetracont-42-ene-23,1′-cyclobutane]-3,9,12,15,19,22,25,31,34,37,45-undecone], in test [2], the “HRAS/KRAS (ratio of KD value for HRAS to KD value for KRAS)” value was “A (a compound having 10 or more and less than 20 is denoted as A)”; the “ratio of the KD value with respect to GDP-bound HRAS wild-type protein to the KD value with respect to KRAS” value is “A (a compound having 10 or more and less than 20 is denoted as A)”. For the same compound, the Kd in test [3] (setting [6]) was determined as 0.15 nM. Besides, the Kd in test [3] (setting [7]) came out at 0.15 nM. Also, the IC50 in test [4] worked out at 2.6 nM. For the same compound, in test [5], the “NRAS/KRAS (ratio of KD value for NRAS to KD value for KRAS)” value was “A (a compound having 10 or more and less than 20 is denoted as A)”; the “ratio of the KD value with respect to GDP-bound NRAS wild-type protein to the KD value with respect to KRAS” value was “A (a compound having 10 or more and less than 20 is denoted as A)”.

For the compound `CCC[C@H]1C(=O)N[C@@H]([C@@H](C)CC)C(=O)N(C)CC(=O)N(C)[C@H]2C/C=C\CCN(C2=O)[C@@H](Cc2ccc(C(F)(F)F)cc2)C(=O)N(C)CC(=O)N[C@@H](CCc2cc(F)c(C(F)(F)F)c(F)c2)C(=O)N2C[C@H](OCC)C[C@H]2C(=O)N(C)C2(CCC2)C(=O)N(C)[C@@H](C2CCCC2)C(=O)N(C)[C@H](C(=O)N2CCCCC2)CC(=O)N1C` [PP3118, (2S,8S,12R,14S,20S,23S,27S,30S,36S,38Z)-20-cyclopentyl-8-[2-[3,5-difluoro-4-(trifluoromethyl)phenyl]ethyl]-12-ethoxy-4,16,19,22,26,32,35-heptamethyl-30-[(1S)-1-methylpropyl]-23-(piperidine-1-carbonyl)-27-propyl-2-[[4-(trifluoromethyl)phenyl]methyl]spiro[1,4,7,10,16,19,22,26,29,32,35-undecazatricyclo[34.5.1.0^10,14]dotetracont-38-ene-17,1′-cyclobutane]-3,6,9,15,18,21,25,28,31,34,42-undecone], in test [2], the “HRAS/KRAS (ratio of KD value for HRAS to KD value for KRAS)” value is “B (a compound having 3 or more and less than 10 is denoted as B)”; the “ratio of the KD value with respect to GDP-bound HRAS wild-type protein to the KD value with respect to KRAS” value was “B (a compound having 3 or more and less than 10 is denoted as B)”. The Kd in test [3] (setting [6]) came out at 0.12 nM. The Kd in test [3] (setting [7]) is 0.12 nM. In test [4], the IC50 was found to be 6.7 nM. In test [5], the “NRAS/KRAS (ratio of KD value for NRAS to KD value for KRAS)” value was “A (a compound having 10 or more and less than 20 is denoted as A)”; the “ratio of the KD value with respect to GDP-bound NRAS wild-type protein to the KD value with respect to KRAS” value was “A (a compound having 10 or more and less than 20 is denoted as A)”.

Consider `CCC[C@H]1C(=O)N[C@@H]([C@@H](C)CC)C(=O)N(C)CC(=O)N(C)[C@H]2C/C=C\CCN(C2=O)[C@@H](Cc2ccc(C)cc2)C(=O)N(C)CC(=O)N[C@@H](CCc2cc(F)c(C(F)(F)F)c(F)c2)C(=O)N2C[C@H](OCC)C[C@H]2C(=O)N(C)C2(CCC2)C(=O)N(C)[C@@H](C2CCCC2)C(=O)N(C)[C@H](C(=O)N2CCCCC2)CC(=O)N1C` [PP3119, (2S,8S,12R,14S,20S,23S,27S,30S,36S,38Z)-20-cyclopentyl-8-[2-[3,5-difluoro-4-(trifluoromethyl)phenyl]ethyl]-12-ethoxy-4,16,19,22,26,32,35-heptamethyl-30-[(1S)-1-methylpropyl]-23-(piperidine-1-carbonyl)-27-propyl-2-(p-tolylmethyl)spiro[1,4,7,10,16,19,22,26,29,32,35-undecazatricyclo[34.5.1.0^10,14]dotetracont-38-ene-17,1′-cyclobutane]-3,6,9,15,18,21,25,28,31,34,42-undecone], for which, in test [2], the “HRAS/KRAS (ratio of KD value for HRAS to KD value for KRAS)” value was “A (a compound having 10 or more and less than 20 is denoted as A)”; the “ratio of the KD value with respect to GDP-bound HRAS wild-type protein to the KD value with respect to KRAS” value is “A (a compound having 10 or more and less than 20 is denoted as A)”. The Kd in test [3] (setting [6]) worked out at 0.09 nM. In test [3] (setting [7]), the Kd worked out at 0.09 nM. For the same compound, the IC50 in test [4] was determined as 3.5 nM. In test [5], the “NRAS/KRAS (ratio of KD value for NRAS to KD value for KRAS)” value is “A (a compound having 10 or more and less than 20 is denoted as A)”; the “ratio of the KD value with respect to GDP-bound NRAS wild-type protein to the KD value with respect to KRAS” value is “A (a compound having 10 or more and less than 20 is denoted as A)”.

`CCC[C@H]1C(=O)N[C@@H]([C@@H](C)CC)C(=O)N(C)CC(=O)N(C)[C@H]2C/C=C\CCN(C2=O)[C@@H](Cc2ccc(C(F)(F)F)cc2)C(=O)N(C)CC(=O)N[C@@H](CCc2cc(F)c(C(F)(F)F)c(F)c2)C(=O)N2C[C@H](OCC)C[C@H]2C(=O)N(C)C2(CCC2)C(=O)N(C)[C@@H](C2CCCC2)C(=O)N(C)[C@H](C(=O)N2CCCC2)CC(=O)N1C` [PP3120, (2S,8S,12R,14S,20S,23S,27S,30S,36S,38Z)-20-cyclopentyl-8-[2-[3,5-difluoro-4-(trifluoromethyl)phenyl]ethyl]-12-ethoxy-4,16,19,22,26,32,35-heptamethyl-30-[(1S)-1-methylpropyl]-27-propyl-23-(pyrrolidine-1-carbonyl)-2-[[4-(trifluoromethyl)phenyl]methyl]spiro[1,4,7,10,16,19,22,26,29,32,35-undecazatricyclo[34.5.1.0^10,14]dotetracont-38-ene-17,1′-cyclobutane]-3,6,9,15,18,21,25,28,31,34,42-undecone]: in test [2], the “HRAS/KRAS (ratio of KD value for HRAS to KD value for KRAS)” value was “A (a compound having 10 or more and less than 20 is denoted as A)”; the “ratio of the KD value with respect to GDP-bound HRAS wild-type protein to the KD value with respect to KRAS” value is “A (a compound having 10 or more and less than 20 is denoted as A)”. In addition, the Kd in test [3] (setting [6]) turned out to be 0.052 nM. In addition, the Kd in test [3] (setting [7]) is 0.052 nM. In test [4], the IC50 is 1.9 nM. Besides, in test [5], the “NRAS/KRAS (ratio of KD value for NRAS to KD value for KRAS)” value is given as “AA (a compound having 20 or more is denoted as AA)” and the “ratio of the KD value with respect to GDP-bound NRAS wild-type protein to the KD value with respect to KRAS” value was “AA (a compound having 20 or more is denoted as AA)”.

With `CCC[C@H]1C(=O)N[C@@H]([C@@H](C)CC)C(=O)N(C)CC(=O)N(C)[C@H]2C/C=C\CCN(C2=O)[C@@H](Cc2ccc(C)cc2)C(=O)N(C)CC(=O)N[C@@H](CCc2cc(F)c(C(F)(F)F)c(F)c2)C(=O)N2C[C@H](OCC)C[C@H]2C(=O)N(C)C2(CCC2)C(=O)N(C)[C@@H](C2CCCC2)C(=O)N(C)[C@H](C(=O)N2CCCC2)CC(=O)N1C` [PP3121, (2S,8S,12R,14S,20S,23S,27S,30S,36S,38Z)-20-cyclopentyl-8-[2-[3,5-difluoro-4-(trifluoromethyl)phenyl]ethyl]-12-ethoxy-4,16,19,22,26,32,35-heptamethyl-30-[(1S)-1-methylpropyl]-27-propyl-2-(p-tolylmethyl)-23-(pyrrolidine-1-carbonyl)spiro[1,4,7,10,16,19,22,26,29,32,35-undecazatricyclo[34.5.1.0^10,14]dotetracont-38-ene-17,1′-cyclobutane]-3,6,9,15,18,21,25,28,31,34,42-undecone], in test [2], the “HRAS/KRAS (ratio of KD value for HRAS to KD value for KRAS)” value was “A (a compound having 10 or more and less than 20 is denoted as A)”; the “ratio of the KD value with respect to GDP-bound HRAS wild-type protein to the KD value with respect to KRAS” value was “A (a compound having 10 or more and less than 20 is denoted as A)”. In addition, in test [3] (setting [6]), the Kd came to 0.043 nM. Further, the Kd in test [3] (setting [7]) worked out at 0.043 nM. The IC50 in test [4] worked out at 1.5 nM. In addition, in test [5], the “NRAS/KRAS (ratio of KD value for NRAS to KD value for KRAS)” value was “A (a compound having 10 or more and less than 20 is denoted as A)”; the “ratio of the KD value with respect to GDP-bound NRAS wild-type protein to the KD value with respect to KRAS” value is “A (a compound having 10 or more and less than 20 is denoted as A)”.
